Counter-ions that a name gives are not always drawn.
Assays:
[1] = tested on: healthy adult male human volunteers; assay: In vivo uric acid lowering activity, multiple ascending dose placebo-controlled study
Procedure: 16 healthy male individuals, aged 18-45 years inclusive, with a body mass index (BMI) within 18-30 kg/m^2 inclusive, having provided a written informed consent, non smokers for at least 6 months, not using any drug treatment for 2 weeks before screening (2 months for enzyme-inducing drugs) except occasional Acetaminophen. The individuals were confined at the clinical site beginning the day before dose administration until 72 hours after the final dose administration on Day 17 and returned for a follow-up visit on Day 21±1.
Matching placebo capsules were supplied as size 2 gelatin capsules. Individuals were randomized to receive the same number of placebo capsules as administered to the active individuals.
Capsules (active or placebo) were administered orally with 240 mL water 30 min after a standard breakfast (morning dose) and dinner (evening dose) for 14 days.
16 individuals (8 individuals [6 active and 2 placebo] per dose group). • a. Group 1: Placebo • b. Group 2: 300 mg (3×100-mg capsules) example 1 b.i.d. • c. Group 3: 500 mg (5×100-mg capsules) example 1 b.i.d.
Blood was collected from the individuals on days 0, 3, 7, 14 and at follow-up. Serum uric levels were measured using standard automated procedures. The results are shown in the table below (uric acid levels in μmol/L).

hURAT1 Transporter = biological target: T1, hURAT1 Transporter (Homo sapiens, UniProt Q96S37); assay: Uric Acid Uptake Assay; format: cell-based; conditions: HEK293/urat1 cells; C14 Uric Acid 40 μM; 10 minutes at room temperature
T1 construct: Full-length human URAT1 gene (SLC22A12) was subcloned from plasmid pCMV6-XL5
T1 sequence (Q96S37 1-553): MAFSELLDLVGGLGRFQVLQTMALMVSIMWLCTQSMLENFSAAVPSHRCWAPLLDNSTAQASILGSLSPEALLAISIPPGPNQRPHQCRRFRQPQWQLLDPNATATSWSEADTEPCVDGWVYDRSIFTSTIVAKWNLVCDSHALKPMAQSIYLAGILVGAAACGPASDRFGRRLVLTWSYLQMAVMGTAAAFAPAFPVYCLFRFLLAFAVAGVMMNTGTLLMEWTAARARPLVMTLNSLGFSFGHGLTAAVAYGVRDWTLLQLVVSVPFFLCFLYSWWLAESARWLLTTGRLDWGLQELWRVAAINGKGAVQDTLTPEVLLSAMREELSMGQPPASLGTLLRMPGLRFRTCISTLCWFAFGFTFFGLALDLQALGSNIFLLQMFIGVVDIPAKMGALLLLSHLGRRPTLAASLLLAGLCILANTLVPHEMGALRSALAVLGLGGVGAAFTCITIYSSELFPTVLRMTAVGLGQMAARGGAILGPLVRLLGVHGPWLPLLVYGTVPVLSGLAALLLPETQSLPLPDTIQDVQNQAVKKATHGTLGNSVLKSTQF
From the text: Creation of Stable Cell Lines Expressing hURAT1 Transporter: Full-length human URAT1 gene (SLC22A12) was subcloned from plasmid pCMV6-XL5 (Origene) into eukaryotic expression plasmid pCMV6/Neo (Origene) using Not I restriction sites. Gene sequencing confirmed the sequence of hURAT1 as outlined in Genbank (Accession #NM_144585.2). HEK293 human embryonic kidney cells (ATCC#CRL-1573) were propagated in EMEM tissue culture medium as described by ATCC in an atmosphere of 5% CO2 and 95% air. Transfections of HEK293 cells with the pCMV6/Neo/URAT1 construct were performed using L2000 transfection reagent (Invitrogen) as described by the manufacturer. After 24 h the transfected cells were split into 10 cm tissue culture plates and grown for 1 day after which the medium was replaced with fresh growth medium containing G418 (Gibco) at 0.5 mg/ml final concentration. Drug-resistant colonies were selected after approximately 8 days and then tested for ^14C-uric acid transport activity. The HEK293/urat1 cells are plated on Poly-D-Lysine Coated 96-well Plates at a density of 75,000 cells per well.
Cells were grown overnight (20-26 hours) at 37° C. in an incubator. Plates were allowed to come to room temperature and media was washed out with one wash of […] of Wash Buffer (125 mM Na Gluconate, 10 mM Hepes ph 7.3). Compound or vehicle is added in assay buffer with C14 Uric Acid for a final concentration of 40 μM Uric Acid with a specific activity of 54 mCi/mmol. Assay Buffer is 125 mM Sodium Gluconate, 4.8 mM Potassium Gluconate, 1.2 mM Potassium phosphate, monobasic, 1.2 mM magnesium sulfate, 1.3 mM Ca Gluconate, 5.6 mM Glucose, 25 mM HEPES, pH 7.3. Plates were incubated at room temperature for 10 minutes then washed 3 times with 50 μl Wash Buffer and 3 times with 250 μl Wash Buffer. Microscint 20 Scintillation Fluid was added and plates were incubated overnight at 45° C. to equilibrate. Plates are then read on the TopCount Plate Reader and an EC50 value generated. (See Enomoto et al, Nature, 2002, 417, 447-451 and Anzai et al, J. Biol. Chem., 2004, 279, 45942-45950.).
Compounds prepared as described herein, were examined according to the procedure described above and EC50 values generated. […] (N/A means data not available).

[2] = In vitro metabolic stability in rat liver microsomes; format: in vitro ADME; conditions: 1 uM test compound, 1 mg/mL RLM, 1 mM NADPH, 30 minute incubation at 37° C.
Procedure: (§1) In vitro metabolic stability was assessed in rat and human liver microsomes (RLM/HLM). The incubation mixer contained the following: 1 uM test compound, 1 mg/mL HLM/RLM, 100 mM potassium phosphate buffer at pH 7.4, 1 mM NADPH and 5 mM MgCl2. This mixture was preincubated for 3 min before the 30 minute incubation at 37° C. The reaction was initiated with the addition of NADPH and terminated by the addition of equal volume of acetonitrile with internal standard. Incubation samples without NADPH were used as control samples. After vortexing and centrifugation, the supernatant was injected onto LC-MS/MS for quantitation.

[3] = In vitro metabolic stability in human liver microsomes; format: in vitro ADME; conditions: 1 uM test compound, 1 mg/mL HLM, 1 mM NADPH, 30 minute incubation at 37° C.
Procedure: as §1

physchem = conditions: for Solubility: 22° C., 24 hours
Procedure: When it appeared the saturation point was being reached, addition was stopped, and the eppendorf vial was shaken at a constant speed of 1000 rpm at 22° C. for 24 hours. The tubes were then centrifuged for 5 minutes at 10-15,000 rpm, and checked for precipitation. Samples were diluted with acetonitrile/water, (1/1) (or iso-propyl alcohol for hexane) and analyzed by HPLC against known standards.

[4] = 300 mg b.i.d. oral, Day 3, n = 6, serum
[5] = 300 mg b.i.d. oral, Day 7, n = 6, serum
[6] = 300 mg b.i.d. oral, Day 14, n = 6, serum
[7] = 300 mg b.i.d. oral, Follow up, n = 6, serum
[8] = 500 mg b.i.d. oral, Day 7, n = 6, serum
[9] = 500 mg b.i.d. oral, Day 14, n = 6, serum
[10] = 500 mg b.i.d. oral, Follow up, n = 6, serum

O=C(CSc1nnc(Br)n1-c1ccc(C2CC2)c2ccccc12)Nc1ccc(C(=O)[O-])cc1Cl.[K+] [4-(2-(5-bromo-4-(4-cyclopropylnaphthalen-1-yl)-4H-1,2,4-triazol-3-ylthio)acetamido)-3-chlorobenzoic acid, potassium salt]
Uric acid (μmol/L) MEAN [1, 4]: -100.3229 µmol/L | Uric acid (μmol/L) MEDIAN [1, 4]: -101.4134 µmol/L | Uric acid (μmol/L) MEAN [1, 5]: -126.2959 µmol/L | Uric acid (μmol/L) MEDIAN [1, 5]: -119.8522 µmol/L | Uric acid (μmol/L) MEAN [1, 6]: -121.2401 µmol/L | Uric acid (μmol/L) MEDIAN [1, 6]: -104.9822 µmol/L | Uric acid (μmol/L) MEAN [1, 7]: -2.2801 µmol/L | Uric acid (μmol/L) MEDIAN [1, 7]: 0.8922 µmol/L | Uric acid (μmol/L) MEDIAN ([1]; 500 mg b.i.d. oral, Day 3, n = 6, serum): -112.1198 µmol/L | Uric acid (μmol/L) MEAN [1, 8]: -127.6837 µmol/L | Uric acid (μmol/L) MEDIAN [1, 8]: -144.2390 µmol/L | Uric acid (μmol/L) MEAN [1, 9]: -111.8224 µmol/L | Uric acid (μmol/L) MEDIAN [1, 9]: -124.9080 µmol/L | Uric acid (μmol/L) MEAN [1, 10]: 27.2617 µmol/L | Uric acid (μmol/L) MEDIAN [1, 10]: 27.3608 µmol/L

CC(C)(Sc1nnc(Br)n1-c1ccc(C2CC2)c2ccccc12)C(=O)O [Example 3, 2-(5-Bromo-4-(4-cyclopropylnaphthalen-1-yl)-4H-1,2,4-triazol-3-ylthio)-2-methylpropanoic acid]
EC50 (hURAT1 Transporter): 0.001 to 1 µM | Liver Microsome Stability % Remaining Rat [2]: 98 ± 0.1% | Liver Microsome Stability % Remaining Human [3]: 97 ± 2%

O=C(O)CSc1nnc(Br)n1-c1ccc(C2CC2)c2ccccc12 [Example 104, Sodium 2-(5-bromo-4-(4-cyclopropylnaphthalen-1-yl)-4H-1,2,4-triazol-3-ylthio)acetate]
solubility at 24 h (physchem; 22 °C, pH 4.85, water, thermodynamic from solid, Solubility (mg/mL)): 49200 µg/mL

O=C(O)CSc1nnc(Br)n1-c1ccc(C2CC2)c2ccccc12 [Piperazine salt, 2-(5-bromo-4-(4-cyclopropylnaphthalen-1-yl)-4H-1,2,4-triazol-3-ylthio)acetate]
Solubility (physchem; Acetone): 260 µg/mL | Solubility (physchem; DMSO): ~54000 µg/mL | Solubility (physchem; EtOAc): 55 µg/mL | Solubility (physchem; Ethanol): 9100 µg/mL | Solubility (physchem; IPA): 1600 µg/mL | Solubility (physchem; PEG-400): 2400 µg/mL

CCOC(=O)CSc1nnc(C(F)(F)F)n1-c1c(C)cc(C)c2c1CCCC2 [ethyl 2-(4-(2,4-dimethyl-5,6,7,8-tetrahydronaphthalen-1-yl)-5-(trifluoromethyl)-4H-1,2,4-triazol-3-ylthio)acetate]
EC50 (hURAT1 Transporter): > 30 µM

CCOC(=O)CSc1nncn1-c1ccc(C)c2ccc(C)cc12 [ethyl 2-(4-(4,7-dimethylnaphthalen-1-yl)-4H-1,2,4-triazol-3-ylthio)acetate]
EC50 (hURAT1 Transporter): 1 to 30 µM

CCOC(=O)CSc1nnc(C(F)F)n1-c1ccc(CC)c2ccccc12 [ethyl 2-(5-(difluoromethyl)-4-(4-ethylnaphthalen-1-yl)-4H-1,2,4-triazol-3-ylthio)acetate]
EC50 (hURAT1 Transporter): > 30 µM

CCOC(=O)CSc1nnc(CF)n1-c1ccc(C)c2c1CCCC2 [ethyl 2-(5-(fluoromethyl)-4-(4-methyl-5,6,7,8-tetrahydronaphthalen-1-yl)-4H-1,2,4-triazol-3-ylthio)acetate]
EC50 (hURAT1 Transporter): 1 to 30 µM

CCOC(=O)C(C)(C)Sc1nnc(N)n1-c1ccc(C2CC2)c2ccccc12 [ethyl 2-(5-amino-4-(4-cyclopropylnaphthalen-1-yl)-4H-1,2,4-triazol-3-ylthio)-2-methylpropanoate]
EC50 (hURAT1 Transporter): > 30 µM

CCOC(=O)C(C)(C)Sc1nnc(Br)n1-c1ccc(C2CC2)c2ccccc12 [ethyl 2-(5-bromo-4-(4-cyclopropylnaphthalen-1-yl)-4H-1,2,4-triazol-3-ylthio)-2-methylpropanoate]
EC50 (hURAT1 Transporter): 0.001 to 1 µM

CCOC(=O)CCSc1nnc(N)n1-c1ccc(C2CC2)c2ccccc12 [ethyl 3-(5-amino-4-(4-cyclopropylnaphthalen-1-yl)-4H-1,2,4-triazol-3-ylthio)propanoate]
EC50 (hURAT1 Transporter): 1 to 30 µM

CCOC(=O)CCSc1nnc(Br)n1-c1ccc(C2CC2)c2ccccc12 [ethyl 3-(5-bromo-4-(4-cyclopropylnaphthalen-1-yl)-4H-1,2,4-triazol-3-ylthio)propanoate]
EC50 (hURAT1 Transporter): 1 to 30 µM

Source: US8633232B2, “Compounds, compositions and methods of using same for modulating uric acid levels” (Ardea Biosciences, Inc., priority 2008, dated 2014)
